The values below come from US9012499B2, “Pharmaceutical composition comprising oseltamivir phosphate” (Chugai Seiyaku Kabushiki Kaisha, priority 2006, dated 2015).

A short description of data set [1]: Color development of sugars and sugar alcohols mixed with oseltamivir phosphate (Example 1). The format is physicochemical. Conditions: nine parts by weight of test sample and one part of oseltamivir phosphate; for Coloring by mixing with sugars and sugar alcohols, rank of color difference ΔE*, 40° C., 75% RH, one month (open): bottle open; for Coloring by mixing with sugars and sugar alcohols, rank of color difference ΔE*, 60° C. for 2 weeks (sealed): sealed bottle. As to the method: Various samples of sugars and sugar alcohols were mixed with oseltamivir phosphate and the color development was confirmed by the following method. Nine parts by weight of a test sample and one part by weight of oseltamivir phosphate were mixed in a mortar, and the mixture was transferred to a No. 1 standard brown glass bottle (volume: 14 ml) and the bottle was tightly sealed by a polyethylene middle stopper and a polypropylene screw cap. The color of the mixture immediately after mixing was measured by a color difference meter. The mixture was kept in the following two conditions: i) 2 weeks in a 60° C. incubator, or ii) one month in a 40° C. incubator at 75% RH while the bottle was open. Thereafter, the color of the mixture was measured. The color difference before and after the storage ΔE*(CIE L*a*b*) was measured. The measurement of color difference was carried out according to JIS Z-8722, based on 0-45° rear spectrophotometric method using a spectrophotometric color difference meter (SE-2000) (Nippon Denshoku Ltd.).
The A, B and C rank in the table represents ΔE*≦2.5, 2.5<ΔE*≦5.0 and ΔE*>5.0, respectively.

A short description of data set [2]: Color change of wet-granulated sugar alcohol/oseltamivir phosphate formulation after storage (Example 2). Type of data set: physicochemical. Conditions: 27 g additive + 3 g oseltamivir phosphate, wet granulation with water; 60° C. for 4 weeks under a tight seal. The procedure:
Twenty seven grams of a sugar alcohol and 3 g of oseltamivir phosphate were mixed in a mortar, and then kneaded by adding 1 mL of water to carry out the wet granulation. The mixture was dried in a 50° C. constant temperature drying oven for 3 hr to reduce the water content of the formulation to 1% by weight or less. The formulation was kept at 60° C. for 4 weeks under a tight seal and the change of color before and after the storage was measured by a color difference meter.

Data set [3] is described as follows: Equilibrium water content of sugars and sugar alcohols (DVS-1). Type of data set: physicochemical. Conditions: 25° C., relative humidity 70%. The procedure:
Sugars and sugar alcohols (excipients) used in the pharmaceutical composition of the present invention have a characteristic that their equilibrium water content is 1% by weight or less at 25° C. and at 70% relative humidity. That is, the equilibrium water content may be obtained by leaving the samples (sugars or sugar alcohols) in the air that has been held in the predetermined condition of 25° C. and 70% relative humidity for a long time, and then by measuring when the water content in the samples become constant.
(1) Method for Measuring Equilibrium Water Content
Equilibrium water content (25° C., relative humidity 70%) of sugars and sugar alcohols can be measured by the method using a DVS-1 (Surface Measurement Systems Ltd.). The condition for measurement is as follows.
Quantity of samples: 50 to 100 mg (intending to scale 75 mg)
Measurement temperature: 25±1° C.
Setting range of relative humidity: 0 to 100% RH
Measurement step of relative humidity: up to 10%
Hold time: If change of the weight is less than 0.02%, the measurement enters next step, but the change is not stable, the step lasts up to 120 min.

In data set [4] the test system is neuraminidase of influenza virus. Particulars: Patent Document 1 (WO1998/007685); cited from earlier work.

As for `OC[C@H]1O[C@H](O[C@H]2[C@H](O)[C@@H](O)C(O)O[C@@H]2CO)[C@H](O)[C@@H](O)[C@@H]1O` (mixture of isomers) [Maltose], in data set [1], the “Coloring by mixing with sugars and sugar alcohols, rank of color difference ΔE*, 40° C., 75% RH, one month (open)” value is “C (ΔE*>5.0)”; the “Coloring by mixing with sugars and sugar alcohols, rank of color difference ΔE*, 60° C. for 2 weeks (sealed)” value is “C (ΔE*>5.0)”.
Consider `OC[C@@H](O)[C@@H](O)[C@H](O)[C@H](O)CO` [D-Mannitol], for which, in data set [1], the “Coloring by mixing with sugars and sugar alcohols, rank of color difference ΔE*, 40° C., 75% RH, one month (open)” value is given as “A (ΔE*≦2.5)”; the “Coloring by mixing with sugars and sugar alcohols, rank of color difference ΔE*, 60° C. for 2 weeks (sealed)” value is reported as “A (ΔE*≦2.5)”. Also, in data set [2], the “Color difference ΔE*” value was determined as 3.4.
As for `OC[C@@H](O)[C@@H](O)[C@H](O)[C@@H](O)CO` [D-sorbitol 1, D-sorbitol], in data set [2], the “Color difference ΔE*” value was 14.6.
`OC[C@@H](O)[C@@H](O)[C@H](O)[C@@H](O)CO` [D-sorbitol 2, D-sorbitol]: the “Color difference ΔE*” value in data set [2] came to 11.2.
Take `OC[C@@H](O)[C@@H](O)[C@H](O)[C@@H](O)CO` [D-sorbitol]: in data set [1], the “Coloring by mixing with sugars and sugar alcohols, rank of color difference ΔE*, 40° C., 75% RH, one month (open)” value is reported as “C (ΔE*>5.0)”; the “Coloring by mixing with sugars and sugar alcohols, rank of color difference ΔE*, 60° C. for 2 weeks (sealed)” value was “C (ΔE*>5.0)”. The same compound showed an Equilibrium water content in data set [3] of 1.7%.
For `OC[C@@H](O)[C@@H](O)CO` [Erythritol], in data set [1], the “Coloring by mixing with sugars and sugar alcohols, rank of color difference ΔE*, 40° C., 75% RH, one month (open)” value was “B (2.5<ΔE*≦5.0)”. The “Coloring by mixing with sugars and sugar alcohols, rank of color difference ΔE*, 60° C. for 2 weeks (sealed)” value in data set [1] is recorded as “A (ΔE*≦2.5)”. Also, the Equilibrium water content result in data set [3] was “*Equilibrium water content (25° C., relative humidity 70%) is 0.1%, the contents of glucose and mannose as impurities are <0.001% and 0.001%, respectively”; in data set [3] (listed as erythritol) it was 0.1%. Also, the “Color difference ΔE*” value in data set [2] amounted to 4.7.
For `CCOC(=O)C1=C[C@@H](OC(CC)CC)[C@H](NC(C)=O)[C@@H](N)C1.O=P(O)(O)O` [Oseltamivir phosphate, (−)-ethyl (3R,4R,5S)-4-acetamido-5-amino-3-(1-ethylpropoxy)-cyclohex-1-ene-1-carboxylate monophosphate], in data set [1], the “Coloring by mixing with sugars and sugar alcohols, rank of color difference ΔE*, 40° C., 75% RH, one month (open)” value is listed as “A (ΔE*≦2.5)”; the “Coloring by mixing with sugars and sugar alcohols, rank of color difference ΔE*, 60° C. for 2 weeks (sealed)” value is reported as “A (ΔE*≦2.5)”. The “Inhibitory activity against neuraminidase of influenza virus” value in data set [4] is “potent inhibitory activity”.
For `OC[C@H]1O[C@@](CO)(O[C@H]2O[C@H](CO)[C@@H](O)[C@H](O)[C@H]2O)[C@@H](O)[C@@H]1O` [Sucrose], in data set [1], the “Coloring by mixing with sugars and sugar alcohols, rank of color difference ΔE*, 40° C., 75% RH, one month (open)” value is listed as “B (2.5<ΔE*≦5.0)”; the “Coloring by mixing with sugars and sugar alcohols, rank of color difference ΔE*, 60° C. for 2 weeks (sealed)” value is “A (ΔE*≦2.5)”.
`OC[C@@H](O)[C@H](O)[C@@H](O)CO` [Xylitol]: in data set [1], the “Coloring by mixing with sugars and sugar alcohols, rank of color difference ΔE*, 40° C., 75% RH, one month (open)” value is recorded as “C (ΔE*>5.0)”; the “Coloring by mixing with sugars and sugar alcohols, rank of color difference ΔE*, 60° C. for 2 weeks (sealed)” value was “B (2.5<ΔE*≦5.0)”.
